Data from patent US20110039762A1, “TARGETED ANTIMICROBIAL MOIETIES” (C3 JIAN, INC., priority 2009, published 2011).
Entries after “also recorded” stand apart in the source; their conditions may differ. Ends that are not written are not given here.

Tests used:
B. subtilis [1] = assay: Kill or inhibit growth/proliferation; morphology, biofilm and growth disruption (Tables 5, 6); format: cell-based, Bacillus subtilis; set-up: key: A: Peptide aggregates; B: Less hyphal formation; Clumps; Diffuse clumps and small polyps; F: Diffuse growth; H: Thin; I: Growth inhibition; Microcolony formation; Rippled; Small polyps; Thick; W: Halo formation on top, microlonies on bottom; note: test concentration or dose not given here
microorganisms = assay: Peptides having multiple activities (targeting/binding, antimicrobial, growth or phenotype altering)
Text: In certain embodiments, peptides described herein can have multiple activities. Thus for example, a peptide can have both binding/targeting activity and antimicrobial activity. Such peptides can be used, e.g., in a chimeric construct, for any or all of these properties. Thus, for example, a peptide designated “B” in Table 8 can be used as a targeting peptide. If it is also designated G or M it can also be used for antimicrobial activity.

S. epidermidis [2] = format: cell-based, Staphylococcus epidermidis; conditions: S. epidermidis
Protocol: (§1) Typically, the in vitro antimicrobial activity of antimicrobial agents is tested using standard NCCLS bacterial inhibition assays, or MIC tests (see, National Committee on Clinical Laboratory Standards “Performance Standards for Antimicrobial Susceptibility Testing,” NCCLS Document M100-S5 Vol. 14, No. 16, December 1994; “Methods for dilution antimicrobial susceptibility test for bacteria that grow aerobically-Third Edition,” Approved Standard M7-A3, National Committee for Clinical Standards, Villanova, Pa.).
(§2) Briefly, ˜1×10^5 cfu/mL bacteria were diluted in TH (S. mutans), or Mueller-Hinton (MH) broth (all other organisms) and distributed to 96-well plates. Serially-diluted (2-fold) peptides were then added and the plates incubated at 37° C. for 18-24 h. […] All experiments were conducted 10 times.

T. rubrum = assay: MIC (broth microdilution); format: cell-based, Trichophyton rubrum
Protocol: as §1, §2

S. epidermidis [3] = assay: Kill or inhibit growth/proliferation; morphology, biofilm and growth disruption (Tables 5, 6); format: cell-based, Staphylococcus epidermidis; set-up: key: A: Peptide aggregates; B: Less hyphal formation; Clumps; Diffuse clumps and small polyps; F: Diffuse growth; H: Thin; I: Growth inhibition; Microcolony formation; Rippled; Small polyps; Thick; W: Halo formation on top, microlonies on bottom; note: test concentration or dose not given here
[4] = test system: microorganisms (e.g., bacteria, yeasts, fungi); assay: Targeting peptide binding to target microorganisms (Table 3); conditions: preferably 1x PBS; for Target(s): microorganism(s) the targeting peptide binds
B. subtilis [5] = assay: MIC (broth microdilution); format: cell-based, Bacillus subtilis
Protocol: as §1, §2

S. mutans [6] = format: cell-based, Streptococcus mutans; conditions: S. mutans
Protocol: as §1, §2

E. faecalis = assay: Kill or inhibit growth/proliferation; morphology, biofilm and growth disruption (Tables 5, 6); format: cell-based, Enterococcus faecalis; set-up: key: A: Peptide aggregates; B: Less hyphal formation; Clumps; Diffuse clumps and small polyps; F: Diffuse growth; H: Thin; I: Growth inhibition; Microcolony formation; Rippled; Small polyps; Thick; W: Halo formation on top, microlonies on bottom; note: test concentration or dose not given here
MRSA [7] = assay: as above; format: cell-based, Methicillin-resistant Staphylococcus aureus; set-up: key: A: Peptide aggregates; B: Less hyphal formation; Clumps; Diffuse clumps and small polyps; F: Diffuse growth; H: Thin; I: Growth inhibition; Microcolony formation; Rippled; Small polyps; Thick; W: Halo formation on top, microlonies on bottom
E. coli = assay: as above; format: cell-based, Escherichia coli; set-up: key: A: Peptide aggregates; B: Less hyphal formation; Clumps; Diffuse clumps and small polyps; F: Diffuse growth; H: Thin; I: Growth inhibition; Microcolony formation; Rippled; Small polyps; Thick; W: Halo formation on top, microlonies on bottom
M. luteus = assay: as above; format: cell-based, Micrococcus luteus; set-up: key: A: Peptide aggregates; B: Less hyphal formation; Clumps; Diffuse clumps and small polyps; F: Diffuse growth; H: Thin; I: Growth inhibition; Microcolony formation; Rippled; Small polyps; Thick; W: Halo formation on top, microlonies on bottom
S. mutans [8] = assay: as above; format: cell-based, Streptococcus mutans; set-up: key: A: Peptide aggregates; B: Less hyphal formation; Clumps; Diffuse clumps and small polyps; F: Diffuse growth; H: Thin; I: Growth inhibition; Microcolony formation; Rippled; Small polyps; Thick; W: Halo formation on top, microlonies on bottom
S. pneumoniae = assay: as above; format: cell-based, Streptococcus pneumoniae; set-up: key: A: Peptide aggregates; B: Less hyphal formation; Clumps; Diffuse clumps and small polyps; F: Diffuse growth; H: Thin; I: Growth inhibition; Microcolony formation; Rippled; Small polyps; Thick; W: Halo formation on top, microlonies on bottom; note: test concentration or dose not given here
P. mirabilis = assay: as above; format: cell-based; set-up: key: A: Peptide aggregates; B: Less hyphal formation; Clumps; Diffuse clumps and small polyps; F: Diffuse growth; H: Thin; I: Growth inhibition; Microcolony formation; Rippled; Small polyps; Thick; W: Halo formation on top, microlonies on bottom; note: test concentration or dose not given here
P. aeruginosa [9] = assay: as above; format: cell-based, Pseudomonas aeruginosa; set-up: key: A: Peptide aggregates; B: Less hyphal formation; Clumps; Diffuse clumps and small polyps; F: Diffuse growth; H: Thin; I: Growth inhibition; Microcolony formation; Rippled; Small polyps; Thick; W: Halo formation on top, microlonies on bottom
A. niger = assay: MIC (broth microdilution); format: cell-based, Aspergillus niger
Protocol: as §1, §2

MRSA [10] = assay: MIC (broth microdilution); format: cell-based, Methicillin-resistant Staphylococcus aureus
Protocol: as §1, §2

P. aeruginosa [11] = format: cell-based, Pseudomonas aeruginosa; conditions: P. aeruginosa
Protocol: as §1, §2

A. baumannii = assay: MIC (broth microdilution); format: cell-based, Acinetobacter baumannii
Protocol: as §1, §2

C. jejuni = assay: Kill or inhibit growth/proliferation; morphology, biofilm and growth disruption (Tables 5, 6); format: cell-based, Campylobacter jejuni; set-up: key: A: Peptide aggregates; B: Less hyphal formation; Clumps; Diffuse clumps and small polyps; F: Diffuse growth; H: Thin; I: Growth inhibition; Microcolony formation; Rippled; Small polyps; Thick; W: Halo formation on top, microlonies on bottom; note: test concentration or dose not given here
C. jeikeium = assay: as above; format: cell-based, Corynebacterium jeikeium; set-up: key: A: Peptide aggregates; B: Less hyphal formation; Clumps; Diffuse clumps and small polyps; F: Diffuse growth; H: Thin; I: Growth inhibition; Microcolony formation; Rippled; Small polyps; Thick; W: Halo formation on top, microlonies on bottom; note: test concentration or dose not given here
[12] = binding in aqueous buffers depending on peptide solubility
Throughout, for Organism, effect (morphology, biofilm and growth disruption): test concentration or dose not given here.
Throughout, for Organism, effect: test concentration or dose not given here.

| Substance | Activities (microorganisms) | Organism, effect (S. epidermidis [3]) | Organism, effect (MRSA [7]) | Organism, effect (E. coli) | Organism, effect (M. luteus) | Organism, effect (S. mutans [8]) | Organism, effect (S. pneumoniae) | Organism, effect (P. mirabilis) | further results |
| --- | --- | --- | --- | --- | --- | --- | --- | --- | --- |
| MIRIRSPTKKKLNRNSISDWKSNTSGRFFY [PF-283] | G B M | S. epidermidis (H) | – | – | – | – | – | – | Organism, effect (B. subtilis [1]): B. subtilis (H); MIC (S. epidermidis [2]): S. epidermidis, 50 μM; MIC (T. rubrum): T. rubrum, 50 μM; Target(s) [4, 12]: B. subtilis; also recorded: B. fragilis; also recorded: C. difficile; MIC (B. subtilis [5]): B. subtilis, 50 μM |
| WSRVPGHSDTGWKVWHRW-NH2 [PF-547] | G B M | S. epidermidis (R) | MRSA (M) | – | – | – | – | – | Organism, effect (B. subtilis [1]): B. subtilis (I); MIC (S. mutans [6]): S. mutans, 12.5 μM; MIC (T. rubrum): T. rubrum, 25 μM; Organism, effect (E. faecalis): E. faecalis (R); Target(s) ([4]; peptide binding conducted in aqueous buffers varied by peptide solubility): S. epidermidis and E. coli and P. aeruginosa and C. albicans and MRSA and S. pneumoniae and E. faecalis; MIC (B. subtilis [5]): B. subtilis, 25 μM |
| PF-578: peptide having multiple activities (chain 1 QKANLRIGFTYTSDSNVCNLTFALLGSK; chain 2 QKANLRIGFTYTSDSNVCNLTFALLGSK; Peptide with targeting and/or antimicrobial activity) | G B | S. epidermidis (D) | MRSA (C) | E. coli (C) | M. luteus (C) | S. mutans (D) | S. pneumoniae (D) | P. mirabilis (C) | – |
| PF-634: peptide having multiple activities (chain 1 MPKARPVNHNKKKSKITIKSNFTLFYMFNP; chain 2 MPKARPVNHNKKKSKITIKSNFTLFYMFNP; Peptide with targeting and/or antimicrobial activity) | G B | S. epidermidis (D) | MRSA (D) | E. coli (C) | M. luteus (C) | S. mutans (D) | S. pneumoniae (D) | P. mirabilis (C) | – |
| VLPFPAIPLSRRRACVAAPRPRSRQRAS [PF-168] | G B M | – | MRSA (I) | – | – | – | – | – | Organism, effect (P. aeruginosa [9]): P. aeruginosa (H); MIC (A. niger): A. niger, 50 μM; MIC (MRSA [10]): MRSA , 50 μM; MIC (T. rubrum): T. rubrum, 50 μM; Target(s) [4, 12]: S. epidermidis and M. luteus and E. coli and C. albicans and MRSA and C. jeikeium and C. jejuni |
| FIRKFLQKLHL [Peptide K-16] | – | – | – | – | – | – | – | – | MIC (MRSA [10]): MRSA , 25 μM; MIC (S. mutans [6]): S. mutans, 8 μM; MIC (P. aeruginosa [11]): P. aeruginosa, 12.5 μM |
| PF-624 (VFLLDSYCFVKINL; Peptide with targeting and/or antimicrobial activity) | – | S. epidermidis (D) | MRSA (C) | E. coli (C) | M. luteus (C) | S. mutans (D) | S. pneumoniae (D) | P. mirabilis (C) | – |
| SKFKVLRKIIIKEYKGELMLSIQKQR [PF-530] | G M | S. epidermidis (H) | MRSA (C) | E. coli (R) | – | – | S. pneumoniae (R) | – | Organism, effect (E. faecalis): E. faecalis (C); MIC (A. baumannii): A. baumannii, 25 μM |
| PF-741: peptide having multiple activities (AKREDTVAAQIGANILNLIQ; Peptide with targeting and/or antimicrobial activity) | G B | – | – | – | – | – | – | – | Organism, effect (morphology, biofilm and growth disruption) (E. coli): E. coli (C); Organism, effect (morphology, biofilm and growth disruption) (M. luteus): M. luteus (C); Organism, effect (morphology, biofilm and growth disruption) (S. mutans [8]): S. mutans (D); Organism, effect (morphology, biofilm and growth disruption) (S. pneumoniae): S. pneumoniae (D); Organism, effect (morphology, biofilm and growth disruption) (S. epidermidis [3]): S. epidermidis (C); Target(s) (microorganisms bound by the targeting peptide) ([4]; peptide binding in aqueous buffers varied by peptide solubility): S. epidermidis and M. luteus and P. mirabilis and P. aeruginosa and C. albicans and MRSA and S. pneumoniae and E. faecalis; Organism, effect (morphology, biofilm and growth disruption) (P. mirabilis): P. mirabilis (C); Organism, effect (morphology, biofilm and growth disruption) (MRSA [7]): MRSA (C) |
| MIHLTKQNTMEALHFIKQFYDMFFILNFNV [PF-040] | G B | S. epidermidis (D) | MRSA (D) | E. coli (C) | M. luteus (D) | S. mutans (F) | S. pneumoniae (D) | P. mirabilis (C) | Organism, effect (B. subtilis [1]): B. subtilis (D); Organism, effect (C. jejuni): C. jejuni (D); Organism, effect (C. jeikeium): C. jeikeium (D) |
| PF-612: peptide having multiple activities (GTTLKYGLERQLKIDIHPEITIINLNGGADEFAKL; Peptide with targeting and/or antimicrobial activity) | G B | S. epidermidis (C) | MRSA (C) | E. coli (C) | M. luteus (A) | S. mutans (F) | S. pneumoniae (C) | P. mirabilis (C) | – |
| PF-770: peptide having multiple activities (GVGIGFIMMGVVGYAVKLVHIPIRYLIV; Peptide with targeting and/or antimicrobial activity) | G B | – | – | – | – | – | – | – | Organism, effect (morphology, biofilm and growth disruption) (E. coli): E. coli (C); Organism, effect (morphology, biofilm and growth disruption) (M. luteus): M. luteus (C); Organism, effect (morphology, biofilm and growth disruption) (S. mutans [8]): S. mutans (D); Organism, effect (morphology, biofilm and growth disruption) (S. pneumoniae): S. pneumoniae (C); Organism, effect (morphology, biofilm and growth disruption) (S. epidermidis [3]): S. epidermidis (D); Organism, effect (morphology, biofilm and growth disruption) (P. mirabilis): P. mirabilis (C); Organism, effect (morphology, biofilm and growth disruption) (MRSA [7]): MRSA (D) |
